Columns and labels:
human cyclin E-Cdk2 = human cyclin E-Cdk2 (Homo sapiens, UniProt P24941); test: Cdk2 FlashPlate kinase assay (Rb phosphorylation); format: biochemical; settings: recombinant cyclin E-Cdk2, Rb substrate, 1 μM ATP
Procedure: (§1) To determine inhibition of Cdk4, Cdk2 and Cdk1 activity, kinase assays were conducted using FlashPlate™ assays (NEN™-Life Science Products). FlashPlate assays were performed using recombinant human cyclin B-Cdk1, human cyclin E-Cdk2 or human cyclin D1-Cdk4 complexes. GST-cyclinE (GST-cycE), Cdk2, GST-cyclinB (GST-cycB), Cdk1, GST-Cdk4 and cyclin D1 (cycD1) cDNA clones in baculovirus vectors were provided by Dr. W. Harper at the Baylor College of Medicine, Houston, Tex. Proteins were co-expressed in High Five™ insect cells and the complex was purified on glutathione Sepharose resin (Pharmacia, Piscataway, N.J.) as previously described (Harper, J. W. et al. Cell 1993, 75, 805-816). A 6×-Histidine tagged truncated form of retinoblastoma (Rb) protein (amino acid 386-928) was used as the substrate for the cycD1-Cdk4, cycB-Cdk1 and the cycE-Cdk2 assays (the expression plasmid was provided by Dr. Veronica Sullivan, Department of Molecular Virology, Roche Research Centre, Welwyn Garden City, United Kingdom). The Rb protein is a natural substrate for phosphorylation by Cdk4, Cdk2 and Cdk1 (see Herwig and Strauss Eur. J. Biochem. Vol. 246 (1997) pp. 581-601 and the references cited therein).
(§2) The expression of the 62 Kd protein was under the control of an IPTG inducible promoter in an M15 E. coli strain. Cells were lysed by sonication and purification was carried out by binding lysates at pH 8.0 to a Ni-chelated agarose column pretreated with 1 mM imidazole. The resin was then washed several times with incrementally decreasing pH buffers to pH 6.0, and eluted with 500 mM imidazole. Eluted protein was dialysed against 20 mM HEPES pH 7.5, 30% glycerol, 200 mM NaCl, and 1 mM DTT. Purified Rb fusion protein stocks were quantitated for protein concentration, aliquoted, and stored at −70° C.
(§3) For all three kinase assays reported herein, 96-well FlashPlates were coated with Rb protein at 10 μg/ml, using 100 μl per well. Plates were incubated at 4° C. overnight or at room temperature for 3 hours on a shaker. To control for nonspecific phosphorylation, one row of wells was coated with 100 μl/well coating buffer (20 mM HEPES, 0.2 M NaCl). Plates were then washed twice with wash buffer (0.01% Tween 20 in phosphate-buffered saline). Compounds to be tested (“test compounds”) were added to the wells at 5× final concentration. Reactions were initiated by immediate addition of 40 μl reaction mix (25 mM HEPES, 20 mM MgCl2, 0.002% Tween 20, 2 mM DTT, 1 μM ATP, 4 nM 33P-ATP) and a sufficient amount of enzyme to give counts that were at least 10-fold above background. Plates were incubated at room temperature on a shaker for 30 minutes. Plates were washed four times with the wash buffer, sealed, and counted on the TopCount scintillation counter (Packard Instrument Co., Downers Grove, Ill.]. The percent inhibition of Rb phosphorylation, which is a measure of the inhibition of Cdk activity, was determined according to the following formula: […]
(§4) where “test compound” refers to the average counts per minute of the test duplicates, “nonspecific” refers to the average counts per minute when no CyclinD/Cdk4, etc., was added, and “total” refers to the average counts per minute when no compound was added. The IC50 value is the concentration of test compound that reduces by 50% the protein-kinase induced incorporation of the radiolabel under the test conditions described.

human cyclin B-Cdk1 = human cyclin B-Cdk1 (Homo sapiens, UniProt P06493); test: Cdk1 FlashPlate kinase assay (Rb phosphorylation); format: biochemical; settings: recombinant cyclin B-Cdk1, Rb substrate, 1 μM ATP
Procedure: as §1, §2, §3, §4

[1] = tested on: HCT116, a colorectal carcinoma cell line; test: Tetrazolium dye (MTT) proliferation assay; format: cell-based; settings: Homo sapiens, HCT-116; HCT116 cells
Procedure: Proliferation was evaluated by the tetrazolium dye assay according to the procedure of Denizot and Lang (Denizot, F. and Lang, R. J Immunol Methods 1986, 89, 271-277). The cell line used was HCT116, a colorectal carcinoma cell line obtained from the American Type Cell Culture Collection (ATCC; Rockville, Md.). The cells were grown in McCoy's 5A medium supplemented with 10% FCS and L-glutamine.
Cells were plated at the appropriate seeding density to give logarithmic growth over the course of the assay in a 96-well tissue culture plate. Plates were incubated overnight at 37° C. in a humidified incubator with 5% CO2. The next day, test compounds were serially diluted to four times the final concentration in the appropriate medium containing 1.2% DMSO. One-fourth final volume of each dilution was added in duplicate to the plates containing cells. The same volume of 1.2% DMSO in medium was added to a row of “control wells” such that the final concentration of DMSO in each well was 0.3%. Wells to which no cells were added served as the “blank.” Wells to which no inhibitor was added served as “no inhibitor control.” The plates were) returned to the incubator, and at set time points (determined by their growth curves) plates were analyzed as described below.
3-(4,5-dimethylthiazole-2-yl)-2,5-diphenyl-2H-tetrazolium bromide (thiazolyl blue; MTT; Sigma) was added to each well to yield a final concentration of 1 mg/ml. Plates were returned to the incubator for 2.5-3 hours at 37° C. The MTT-containing medium was removed and the resulting formazan metabolite was solubilized in 100% ethanol with shaking for 15 minutes at room temperature. Absorbance readings were taken in a microtiter plate reader (Dynatech and Molecular Devices plate readers were used interchangeably) at a wavelength of 570 nm with a 650 nm reference. Percent inhibition (% INH) is calculated by subtracting the absorbance of the blank well from all wells, then subtracting the ratio of the average absorbance of each test duplicate (SAVE) by the average of the controls (CAVE) from 1.00. The final number is then multiplied by 100 (% INH=(1.00−SAVE/CAVE)×100). The concentration at which 50% inhibition of cell proliferation is obtained (the IC50) is determined from the linear regression of a plot of the logarithm of the concentration versus percent inhibition.

human cyclin D1-Cdk4 = human cyclin D1-Cdk4 (Homo sapiens, UniProt P11802); test: Cdk4 FlashPlate kinase assay (Rb phosphorylation); format: biochemical; settings: recombinant cyclin D1-Cdk4, Rb substrate, 1 μM ATP
Procedure: as §1, §2, §3, §4

human cyclin B-Cdk1, sequence (P06493 whole entry): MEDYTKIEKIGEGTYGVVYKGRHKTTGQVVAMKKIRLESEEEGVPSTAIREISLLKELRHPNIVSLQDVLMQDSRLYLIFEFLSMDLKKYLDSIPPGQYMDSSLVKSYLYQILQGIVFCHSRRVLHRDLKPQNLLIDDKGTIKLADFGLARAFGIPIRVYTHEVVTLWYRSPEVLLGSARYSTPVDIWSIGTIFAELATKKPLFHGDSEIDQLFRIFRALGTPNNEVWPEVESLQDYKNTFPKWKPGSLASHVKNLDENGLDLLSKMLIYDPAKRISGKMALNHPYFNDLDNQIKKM
human cyclin B-Cdk1, sequence (P14635 whole entry partner): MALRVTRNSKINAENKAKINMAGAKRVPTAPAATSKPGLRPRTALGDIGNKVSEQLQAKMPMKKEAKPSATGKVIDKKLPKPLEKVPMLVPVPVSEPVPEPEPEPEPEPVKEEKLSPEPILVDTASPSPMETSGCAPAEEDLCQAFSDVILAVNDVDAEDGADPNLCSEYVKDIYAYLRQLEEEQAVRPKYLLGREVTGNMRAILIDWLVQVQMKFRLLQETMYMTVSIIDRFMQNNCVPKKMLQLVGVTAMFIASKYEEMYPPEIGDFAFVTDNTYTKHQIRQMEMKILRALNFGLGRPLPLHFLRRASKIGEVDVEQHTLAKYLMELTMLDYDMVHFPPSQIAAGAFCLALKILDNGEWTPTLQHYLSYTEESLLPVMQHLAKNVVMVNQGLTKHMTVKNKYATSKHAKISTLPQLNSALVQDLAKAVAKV
human cyclin D1-Cdk4, sequence (P11802 whole entry): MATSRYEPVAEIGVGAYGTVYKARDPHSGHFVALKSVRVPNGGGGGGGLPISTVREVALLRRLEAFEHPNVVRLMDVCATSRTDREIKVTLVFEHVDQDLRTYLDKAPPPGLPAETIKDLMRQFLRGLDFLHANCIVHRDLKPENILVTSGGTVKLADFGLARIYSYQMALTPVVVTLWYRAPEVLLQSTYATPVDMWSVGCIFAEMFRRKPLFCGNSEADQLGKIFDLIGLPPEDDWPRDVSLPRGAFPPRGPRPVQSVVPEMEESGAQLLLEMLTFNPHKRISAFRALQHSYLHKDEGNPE
human cyclin D1-Cdk4, sequence (P24385 whole entry partner): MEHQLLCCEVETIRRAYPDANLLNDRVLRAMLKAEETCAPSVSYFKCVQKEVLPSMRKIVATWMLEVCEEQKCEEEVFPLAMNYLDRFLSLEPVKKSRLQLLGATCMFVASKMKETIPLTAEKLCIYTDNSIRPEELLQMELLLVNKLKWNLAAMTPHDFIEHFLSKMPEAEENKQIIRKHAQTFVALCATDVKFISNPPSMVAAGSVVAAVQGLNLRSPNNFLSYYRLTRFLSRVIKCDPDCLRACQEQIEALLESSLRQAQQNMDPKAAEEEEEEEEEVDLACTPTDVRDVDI

COc1ccccc1Nc1ncc2c(-c3c(F)cccc3F)n[nH]c2n1 [Example 40, [3-(2,6-Difluoro-phenyl)-1H-pyrazolo[3,4-d]pyrimidin-6-yl]-(2-methoxy-phenyl)-amine; compound with trifluoro-acetic acid]
IC50 (human cyclin E-Cdk2): 278 nM

COc1ccccc1-c1n[nH]c2nc(NCCCN(C)C)ncc12 [Example 36, N′-[3-(2-Methoxy-phenyl)-1H-pyrazolo[3,4-d]pyrimidin-6-yl]-N,N-dimethyl-propane-1,3-diamine]
IC50 (human cyclin E-Cdk2): 278 nM

COc1ccccc1-c1n[nH]c2nc(NCCCCCN(C)C)ncc12 [Example 37, N-[3-(2-Methoxy-phenyl)-1H-pyrazolo[3,4-d]pyrimidin-6-yl]-N,N-dimethyl-pentane-1,5-diamine; compound with trifluoro-acetic acid]
IC50 (human cyclin E-Cdk2): 278 nM

CS(=O)(=O)N1CCC(Nc2ncc3cn[nH]c3n2)CC1 [Example 19]
IC50 (human cyclin E-Cdk2): 33 nM | IC50 (human cyclin B-Cdk1): 231 nM | IC50 [1]: 9160 nM

COc1ccccc1-c1n[nH]c2nc(NCCCCCN)ncc12 [Example 35, [3-(2-Methoxy-phenyl)-1H-pyrazolo[3,4-d]pyrimidin-6-yl]-pentane-1,5-diamine; compound with trifluoro-acetic acid]
IC50 (human cyclin E-Cdk2): 1850 nM | IC50 (human cyclin D1-Cdk4): 1120 nM

Cc1n[nH]c2nc(NC3CCN(C)CC3)ncc12 [Example 23]
IC50 (human cyclin E-Cdk2): 278 nM | IC50 (human cyclin B-Cdk1): 1460 nM

COc1ccc(F)cc1-c1n[nH]c2nc(NC3CCN(S(C)(=O)=O)CC3)ncc12 [Example 25, [3-(5-Fluoro-2-methoxy-phenyl)-1H-pyrazolo[3,4-d]pyrimidin-6-yl]-(1-methanesulfonyl-piperidin-4-yl)-amine]
IC50 (human cyclin E-Cdk2): 77 nM | IC50 (human cyclin D1-Cdk4): 42 nM

COc1ccc(F)c(F)c1-c1n[nH]c2nc(NC3CCN(S(C)(=O)=O)CC3)ncc12 [Example 16, [3-(2,3-Difluoro-6-methoxy-phenyl)-1H-pyrazolo[3,4-d]pyrimidin-6-yl]-(1-methanesulfonyl-piperidin-4-yl)-amine]
IC50 (human cyclin E-Cdk2): 244 nM | IC50 (human cyclin D1-Cdk4): 41 nM | IC50 [1]: 4500 nM

Cc1n[nH]c2nc(NCCO)ncc12 [Example 42, 2-(3-Methyl-1H-pyrazolo[3,4-d]pyrimidin-6-ylamino)-ethanol; compound with trifluoro-acetic acid]
IC50 (human cyclin E-Cdk2): 278 nM

Cc1n[nH]c2nc(Nc3ccc(S(N)(=O)=O)cc3)ncc12 [Example 41, 4-(3-Methyl-1H-pyrazolo[3,4-d]pyrimidin-6-ylamino)-benzenesulfonamide; compound with trifluoro-acetic acid]
IC50 (human cyclin E-Cdk2): 24 nM

COc1ccccc1-c1n[nH]c2nc(Nc3ccc(S(N)(=O)=O)cc3)ncc12 [Example 32, 4-[3-(2-Methoxy-phenyl)-1H-pyrazolo[3,4-d]pyrimidin-6-ylamino]-benzenesulfonamide; compound with trifluoro-acetic acid]
IC50 (human cyclin E-Cdk2): 9 nM | IC50 (human cyclin D1-Cdk4): 36 nM

Fc1ccc(Nc2ncc3c(-c4c(F)cccc4F)n[nH]c3n2)cc1 [Example 33, [3-(2,6-Difluoro-phenyl)-1H-pyrazolo[3,4-d]pyrimidin-6-yl]-(4-fluoro-phenyl)-amine]
IC50 (human cyclin E-Cdk2): 2500 nM | IC50 (human cyclin D1-Cdk4): 2500 nM

CS(=O)(=O)N1CCC(Nc2ncc3c(-c4cccc(F)c4)n[nH]c3n2)CC1 [Example 31, [3-(3-Fluoro-phenyl)-1H-pyrazolo[3,4-d]pyrimidin-6-yl]-(1-methanesulfonyl-piperidin-4-yl)-amine]
IC50 (human cyclin E-Cdk2): 230 nM | IC50 (human cyclin D1-Cdk4): 18.5 nM | IC50 (human cyclin B-Cdk1): 1140 nM | IC50 [1]: 30000 nM

COc1ccc(F)cc1-c1n[nH]c2nc(N[C@H]3CCN(S(C)(=O)=O)C[C@@H]3O)ncc12 [Example 27]
IC50 (human cyclin E-Cdk2): 275 nM | IC50 (human cyclin D1-Cdk4): 4 nM | IC50 [1]: 1700 nM

CCOC(=O)N1CCC(Nc2ncc3c(-c4cccc(F)c4)n[nH]c3n2)CC1 [Example 43, 4-[3-(3-Fluoro-phenyl)-1H-pyrazolo[3,4-d]pyrimidin-6-ylamino]-piperidine-1-carboxylic acid ethyl ester; compound with trifluoro-acetic acid]
IC50 (human cyclin E-Cdk2): 278 nM

CS(=O)(=O)N1CCC(Nc2ncc3c(-c4c(F)cccc4F)n[nH]c3n2)CC1 [Example 29, [3-(2,6-Difluoro-phenyl)-1H-pyrazolo[3,4-d]pyrimidin-6-yl]-(1-methanesulfonyl-piperidin-4-yl)-amine]
IC50 (human cyclin E-Cdk2): 278 nM | IC50 (human cyclin B-Cdk1): 867 nM | IC50 [1]: 32000 nM

COc1ccccc1-c1n[nH]c2nc(NCCO)ncc12 [Example 34, 2-[3-(2-Methoxy-phenyl)-1H-pyrazolo[3,4-d]pyrimidin-6-ylamino]-ethanol]
IC50 (human cyclin E-Cdk2): 594 nM | IC50 (human cyclin D1-Cdk4): 344 nM

COc1ccc(Nc2ncc3c(-c4ccccc4OC)n[nH]c3n2)cc1 [Example 39, (4-Methoxy-phenyl)-[3-(2-methoxy-phenyl)-1H-pyrazolo[3,4-d]pyrimidin-6-y]-amine; compound with trifluoro-acetic acid]
IC50 (human cyclin E-Cdk2): 278 nM

CS(=O)(=O)N1CCC(Nc2ncc3c(-c4ccccc4)n[nH]c3n2)CC1 [Example 30, (1-Methanesulfonyl-piperidin-4-yl)-(3-phenyl-1H-pyrazolo[3,4-d]pyrimidin-6-yl)-amine]
IC50 (human cyclin E-Cdk2): 179 nM | IC50 (human cyclin D1-Cdk4): 128 nM | IC50 (human cyclin B-Cdk1): 262 nM | IC50 [1]: 3930 nM

COc1ccccc1-c1n[nH]c2nc(NC3CCN(S(C)(=O)=O)CC3)ncc12 [Example 28]
IC50 (human cyclin E-Cdk2): 18 nM | IC50 (human cyclin D1-Cdk4): 14 nM | IC50 (human cyclin B-Cdk1): 107 nM | IC50 [1]: 1200 nM

COc1ccccc1-c1n[nH]c2nc(Nc3ccccc3)ncc12 [Example 38, [3-(2-Methoxy-phenyl)-1H-pyrazolo[3,4-d]pyrimidin-6-yl]-phenyl-amine]
IC50 (human cyclin E-Cdk2): 278 nM

Reference: patent US7405220B2, “Pyrazolopyrimidines” (Hoffmann-La Roche Inc., priority 2004, dated 2008)
